Results reported in the NIST ThermoML archive (doi:10.1016/j.tca.2015.12.011).

Experiment: excess molar enthalpy (molar enthalpy of mixing); xn = mol fraction of the nth substance listed
Details: 100 kPa, Liquid, Calvet calorimetry

[Li] [lithium] + [Ga]
Details	excess molar enthalpy [kcal/mol]
891 K, x1 = 0.7508	-4.11
993 K, x1 = 0.1014	-1.39
993 K, x1 = 0.2531	-3.23
1018 K, x1 = 0.7505	-3.9
1044 K, x1 = 0.4035	-4.64
1044 K, x1 = 0.5023	-5.04
1044 K, x1 = 0.6005	-5.04
